The values below come from patent US12465591B2, “Use of carbamate compound for preventing, alleviating or treating diabetic peripheral neuropathy or chemotherapy-induced peripheral neuropathy” (SK BIOPHARMACEUTICALS CO., LTD., priority 2018, dated 2025).

Test [1] has as its system streptozotocin (STZ)-induced diabetic peripheral neuropathic pain rat model (mechanical allodynia). Briefly: von Frey test of mechanical allodynia in streptozotocin (STZ)-induced diabetic peripheral neuropathic pain rat model. Particulars: for bending force before administration: day 24, immediately before that day's dose. It is filed as in vivo, rat (Sprague-Dawley). On the procedure:
(§1) Male rats (Sprague-Dawley, 160 to 180 g, Harlan Laboratories, Israel) were purchased and subjected to acclimatization for more than 1 week at an animal laboratory. The experimental animals were maintained at a light-and-darkness cycle of 12 hours, a temperature of 20 to 24° C., a relative humidity of 40 to 60%, and free access to water and food.
(§2) The degree of pain was assessed by withdrawal (avoidance response) using von Frey filaments. Mechanical stimuli were applied to the right hind paw by the use of an up-down method, and the lowest bending force showing avoidance response was defined as the paw withdrawal threshold (J Neurosci Methods, 1994; 53 (1): 55-63). First, the rats were placed in an acrylic box (13×25×13 cm^3) located on a wire mesh installed at a height of about 35 cm from the floor and stabilized for more than 20 minutes. Among von Frey filaments with various bending forces (0.008, 0.02, 0.04, 0.07, 0.16, 0.4, 0.6, 1.0, 1.4, 2.0, 4.0, 6.0, 8.0, 10.0, 15.0, 26.0, 60.0, 100, 180 and 300 g), the stimulus was started with 2.0 g of filament. The stimulus was applied to the extent of slightly bending in the direction perpendicular to the plantar surface, and the rats were stimulated with a filament with lower or higher bending force, depending on with and without reaction,
This experiment was conducted to investigate the analgesic effects of compound treatment at two different doses (10 mg/kg and 30 mg/kg) in a diabetic peripheral neuropathic pain model of rats induced by streptozotocin (STZ).
Diabetes was induced by 0.5 ml injection of streptozotocin (60 mg/kg) dissolved in citrate buffer (pH=6) into the tail vein of the rat. Animals were placed under a red lamp before injection and locked in a restraint device for administration.
In a streptozotocin (STZ)-induced diabetic peripheral neuropathic pain rat model, diabetic peripheral neuropathy was induced between 14 and 24 days after injection of STZ through the tail blood vessel of the rat. Blood glucose levels (BGL) of all animals on day 3 of the test were used to determine whether diabetes was induced, and on day 14, animals showing signs of mechanical allodynia by von Frey test were tested for BGL on day 14 and 23 of the experiment (FIG. 1).
After the experiment, all animals were euthanized with CO2.
(§3) Each experimental group was compared with the negative control group by using one-way ANOVA and Tukey […] post-test (Prism® GraphPad).

The subject of test [2] is taxol-induced peripheral neuropathy model (mechanical allodynia). Kind of test: von Frey test of mechanical allodynia in taxol-induced peripheral neuropathy rat model. It is filed as in vivo, rat (Sprague-Dawley). The method, then:
as §1
as §2, with “reaction.” for “reaction,”
To induce peripheral neuropathy, 2 mg/kg of taxol—which is an anticancer agent commonly used for the treatment of solid cancers—was intraperitoneally (IP) administered at a dose of 0.5 ml/kg on days 1, 3, 5, 7 and 9. To confirm the induction of allodynia, von Frey test was used, and in the study only animals having […] or less of average pain threshold of hind paws were included.
On day 13 of the experiment, only animals—in which allodynia was verified by von Frey test—were selected as experimental groups, Test Compounds (10 mg/kg and 30 mg/kg) and vehicle as the negative control were orally administered 2 hours before the pain test on day 13 and day 14. Morphine (5 mg/kg) as the positive control was administered 30 minutes prior to the pain test by intraperitoneal administration on day 13 and day 14 of the experiment. After the experiment, all animals were euthanized with CO2.
as §3

In the case of `NCC1(CC(=O)O)CCCCC1` [gabapentin, reference compound], the “allodynia suppressive effect compared to vehicle” value in test [1] (day 14, 150 mg/kg IP) is “no significant allodynia suppressive effect”; in test [1] (day 24, 150 mg/kg IP), “significant allodynia suppressive effect”. Also, the “inhibition of allodynia, pre-treatment vs. post-treatment” value in test [1] (day 14, 150 mg/kg IP) is listed as “the induction of allodynia was significantly inhibited”; in test [1] (day 24, 150 mg/kg IP), “the induction of allodynia was significantly inhibited”. The “mean bending force (paw withdrawal threshold, von Frey)” value in test [1] (day 14, 2 hours after administration, 150 mg/kg IP, vehicle 34.50±6.61 g) worked out at 51.85 ± 4.91 g; in test [1] (day 24, after administration, daily dosing from day 14, 150 mg/kg IP, vehicle 22.85±3.86 g) it was 45.30 ± 4.63 g. Also, the “bending force before administration” value in test [1] (after daily dosing from day 14, 150 mg/kg IP) came out at 25.50 ± 3.95 g.
Consider `CN1CC[C@]23c4c5ccc(O)c4O[C@H]2[C@@H](O)C=C[C@H]3[C@H]1C5` [morphine, Morphine, reference compound], for which the “inhibitory effect on the induction of allodynia compared to the vehicle-administration group” value in test [2] (day 13, 5 mg/kg IP, 30 minutes prior to the pain test) is recorded as “a significant inhibitory effect on the induction of allodynia”; in test [2] (day 14, 5 mg/kg IP, 30 minutes prior to the pain test) it was “a significant inhibitory effect on the induction of allodynia”.
Regarding `NC(=O)O[C@@H](Cn1ncnn1)c1ccccc1Cl` [Test Compound], the “pain reduction compared to the negative control” value in test [1] (10 mg/kg, efficacy similar to 150 mg/kg of gabapentin) is listed as roughly 75%. For the same molecule, the “allodynia suppressive effect compared to vehicle” value in test [1] (day 14, 10 mg/kg PO) is given as “a tendency of allodynia suppressive effect”; in test [1] (day 14, 30 mg/kg PO), “a tendency of allodynia suppressive effect”; in test [1] (day 24, 10 mg/kg PO) it was “significant allodynia suppressive effect”; in test [1] (day 24, 30 mg/kg PO), “significant allodynia suppressive effect”. The “inhibition of allodynia, pre-treatment vs. post-treatment” value in test [1] (day 14, 10 mg/kg PO) is reported as “the induction of allodynia was significantly inhibited”; in test [1] (day 14, 30 mg/kg PO) it was “the induction of allodynia was significantly inhibited”; in test [1] (day 24, 10 mg/kg PO), “the induction of allodynia was significantly inhibited”; in test [1] (day 24, 30 mg/kg PO), “the induction of allodynia was significantly inhibited”. For the same molecule, the “mean bending force (paw withdrawal threshold, von Frey)” value in test [1] (day 14, 2 hours after administration, 10 mg/kg PO, vehicle 34.50±6.61 g) worked out at 46.09 ± 4.48 g; in test [1] (day 24, after administration, daily dosing from day 14, 10 mg/kg PO, vehicle 22.85±3.86 g), 44.36 ± 3.63 g. For the same molecule, the “bending force before administration” value in test [1] (after daily dosing from day 14, 10 mg/kg PO) was 25.18 ± 2.96 g; in test [1] (after daily dosing from day 14, 30 mg/kg PO), 23.55 ± 2.52 g. For the same molecule, the “inhibitory effect on the induction of allodynia compared to the vehicle-administration group” value is reported as “a tendency to inhibit the induction of allodynia” in test [2] (day 13, 10 mg/kg orally, 2 hours before the pain test); “a significant inhibitory effect on the induction of allodynia” in test [2] (day 13, 30 mg/kg orally, 2 hours before the pain test); “a tendency to inhibit the induction of allodynia” in test [2] (day 14, 10 mg/kg orally, 2 hours before the pain test); “a significant inhibitory effect on the induction of allodynia” in test [2] (day 14, 30 mg/kg orally, 2 hours before the pain test).
